In one experiment the test system is PC12 cells. Put plainly: Receptor activation assay (PC12 differentiation with anti-TrkA antibody). Type of experiment: cell-based. As to the method:
The hypothesis that G79, G80, and G81 can act through the binding to the extracellular portion of TrkA (binding site) and activate the tyrosine kinase receptor was tested by treating the PC12 cells with the small chemicals in combination with the antibody anti-TrkA or the K252a, a tyrosine kinase inhibitor. For this purpose PC12 cells were plated into collagen-coated 24-wells plates with 2.5% FBS and after 72 hrs were incubated with the small molecules alone or in combination with anti-TrkA antibody (AbCam, 1:2000) or K252a. NGF (100 ng/ml) was used as control and added alone or in combination with anti-TrkA antibody or K252a. The number of differentiated cells was evaluated after three days of treatment. The cell count was done in three randomly selected fields with 100 cells.

In experiment [1] the test system is retinal ganglion cells (RGC). Put plainly: Glaucoma model, count of retinal ganglion cells. Type of experiment: in vivo, Sprague Dawley rats. As to the method:
12 Sprague Dawley rats (4 months of age) were anesthetized with […] and subjected to hypertonic saline solution injection into the episcleral vein of the right eye. Intraocular pressure (IOP) was measured before the operation and was monitored one time a week using a TonoLab for 7 weeks. Treatment with G79 was begun one week after glaucoma induction by topical application at the conjunctive. Two different experiments were performed.
In the first experiment, G79 was dissolved into physiological solution and was used at two different concentration (200 μg/ml and 400 μg/ml). NGF was used as positive control (200 μg/ml) and the physiological solution, used to dissolve all the molecules, was subministered as placebo. The animals were divided into 4 groups (3 animals in each group): glaucoma-G79 200 μg/ml; glaucoma-G79 […]; glaucoma-NGF; glaucoma-placebo. The left eye was used as the control without glaucoma. In both experiments, seven weeks after glaucoma induction, animals were sacrificed by overdose of anaesthetic and their eyes were taken and fixed in 4% of PFA. The eyes were included in paraffin and cut into 20 μm sections to be used for histological studies (hematoxilin-eosin staining). The cell count of the number of retinal ganglion cells (RGC) was performed randomly in ten different fields for each eye.
Rats were injected with a hypertonic solution in the eye that induced high intraocular pressure for five weeks. Animals were treated with eye drops of NGF ([…]), G79 ([…]) or placebo every day for five weeks. Animals with glaucoma and treated with placebo (saline) have a significant decrease in the number of retinal ganglion cells compared with control.
In the second experiment, G79 at the concentration of 200 μg/ml was used. The objective of this second experiment was to compare the efficacy of G79 to Timolol, the most common therapy for glaucoma that works by decreasing the intraocular pressure. Also in this experiment, a combination treatment with G79 and Timolol was performed. […]

Another experiment deals with SH-SY5Y cells. Put plainly: Parkinson's disease in vitro model (MPTP stress, MTT). It is filed as cell-based, human. As to conditions: MPTP 100 μM, 24 hrs; pre-treated 3 hours; BDNF 20 ng/ml. As to the method:
The human neuroblastoma cell line SH-SY5Y was maintained in culture with 50% Ham's F12 medium and 50% EMEM medium, supplemented with 10% FBS, […] L-glutamine and 1% penicillin/streptomycin. The cell culture was maintained in a humidified atmosphere of 95% air and CO2 at 37° C.
The SH-SY5Y cells after differentiation to neuronal phenotype with retinoic acid, were pre-treated for 3 hours with the test compounds at different concentrations (20 ng/ml, 100 ng/ml, 2 μg/ml, 20 μg/ml and 50 μg/ml) or BDNF (20 ng/ml) as a positive control. Then 1-methyl-4-phenyl-1,2,3,6-tetrahydropyridine (MPTP) (100 μM) was added and incubated for 24 hrs. The number of surviving cells was determined the day after by 3-(4,5-dimethylthiazol-2-yl)-2,5-diphenyltetrazolium bromide (MTT) assay.

Setting [2] is: in combination with anti-TrkA antibody (1:2000).

Entries after “also recorded” stand apart in the source; their conditions may differ.

In the case of `CC(C)CN(CC(=O)N(CCCN1CCCC1=O)CC(N)=O)C(=O)CNCCc1ccccc1F` [Compound G79, [N-(2-(2′-Fluorophenyl)ethyl)glycyl]-[N-(2-methylpropyl)glycyl]-N-[3-(2′-oxopyrrolidinyl)propyl]glycinamide], the “number of differentiated cells” value was 19.6±8.1 in the experiment with PC12 cells (setting [2]) and 11.5±2.8 in the experiment with PC12 cells (treatment alone). For the same molecule, the “protection of retinal ganglion cells (number of RGC vs glaucoma-placebo)” value in experiment [1] (first experiment, eye drops, NGF 200, G79 200 and 400 μg/ml) is reported as “significant protection of the ganglion cells”. Further, in experiment [1] (second experiment, G79 200 μg/ml in combination with Timolol), the “protection of RGCs by the combination treatment” value is on record as “did not exert additive effect in protecting RGCs”. In addition, the “protection of neuronal cells against MPTP (surviving cells, MTT)” value (shortened to “protection of neuronal cells”) with SH-SY5Y cells is listed as “Prevent Neuronal Death; also recorded: significant protection of neuronal cells”.

For the molecule `CC(C)CN(CC(=O)N(CCc1ccc(S(N)(=O)=O)cc1)CC(N)=O)C(=O)CNCCc1ccccc1F` [Compound G80, [N-(2-(2′-Fluorophenyl)ethyl)glycyl]-[N-(2-methylpropyl)glycyl]-N-[2-(4′-sulfamoylphenyl)ethyl]glycinamide], the entries for the “number of differentiated cells” value with PC12 cells (setting [2]) and in the experiment with PC12 cells (treatment alone) were 14.6±4.1 and 15.1±6.3, respectively. The “protection of neuronal cells” value in the experiment with SH-SY5Y cells is “Prevent Neuronal Death”.

Take `CC(C)CN(CC(=O)N(CCc1ccc(S(N)(=O)=O)cc1)CC(N)=O)C(=O)CNCCN1CCCC1` [Compound G81, [N-(2-(1-Pyrrolidinyl)ethyl)glycyl]-[N-(2-methylpropyl)glycyl]-N-[2-(4′-sulfamoylphenyl)ethyl]glycinamide]: the “number of differentiated cells” value with PC12 cells (setting [2]) was 16.5±5.9; in the experiment with PC12 cells (treatment alone), 14.1±3.3. In addition, the “protection of neuronal cells” value in the experiment on SH-SY5Y cells is “Prevent Neuronal Death”.

Values taken from US10106577B2, “Agonists of neurotrophin receptors and their use as medicaments” (BIONURE FARMA, S.L., priority 2010, dated 2018).
